Test results reported in PubChem BioAssay (NCI).
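Step 1: Grow cells in 96-well plates. Step 2: Expose to compound for 48 hours at 5 concentrations. Step 3: Interpolate endpoints linearly; if unreached, use highest concentration. At the GI50, growth is halved. TGI: concentration producing complete growth inhibition.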

Legend:
Assay in all cases: growth of human tumour cells (NCI), 48 h
[1] = tested on: LOX IMVI melanoma
[2] = tested on: A498 renal
[3] = tested on: ACHN renal
[4] = tested on: SN12C renal
[5] = tested on: SNB-19 CNS
[6] = tested on: MOLT-4 leukemia
[7] = tested on: HCT-15 colon
[8] = tested on: HOP-62 NSCLC
[9] = tested on: U251 CNS
[10] = tested on: SR leukemia
[11] = tested on: RXF 393 renal
[12] = tested on: SK-MEL-28 melanoma
[13] = tested on: HS 578T breast
[14] = tested on: SF-295 CNS
[15] = tested on: MDA-MB-231 breast
[16] = tested on: DU-145 prostate
[17] = tested on: OVCAR-5 ovarian
[18] = tested on: M14 melanoma
[19] = tested on: NCI/ADR-RES ovarian
[20] = tested on: SK-MEL-5 melanoma
[21] = tested on: NCI-H460 lung
[22] = tested on: MDA-MB-435
[23] = tested on: HCT-116 colon
[24] = tested on: CCRF-CEM leukemia
[25] = tested on: COLO 205 colon
[26] = tested on: BT-549 breast
[27] = tested on: KM12 colon
[28] = tested on: UACC-62 melanoma
[29] = tested on: NCI-H522 lung
[30] = tested on: PC-3 prostate
[31] = tested on: HCC-2998 colon
[32] = tested on: SK-MEL-2 melanoma
[33] = tested on: OVCAR-8 ovarian
[34] = tested on: NCI-H226 lung
[35] = tested on: HT29 colon
[36] = tested on: A549 NSCLC
[37] = tested on: OVCAR-3 ovarian
[38] = tested on: 786-0 renal
[39] = tested on: MCF7 breast
[40] = tested on: SNB-75 CNS
[41] = tested on: CAKI-1 renal
[42] = tested on: SK-OV-3 ovarian
[43] = tested on: RPMI-8226 leukemia
[44] = tested on: MALME-3M melanoma
[45] = tested on: T-47D breast
[46] = tested on: K-562 leukemia
[47] = tested on: IGROV1 ovarian
[48] = tested on: SF-268 CNS
[49] = tested on: HL-60(TB) leukemia
[50] = tested on: SW-620 colon
[51] = tested on: HOP-92 NSCLC
[52] = tested on: UO-31 renal
[53] = tested on: OVCAR-4 ovarian
[54] = tested on: SF-539 CNS
[55] = tested on: UACC-257 melanoma

With N#Cc1ccc(OCc2nc(N)nc(N)c2-c2ccc(Cl)c(Cl)c2)cc1 the GI50 [1] was 424 nM, the TGI [1] was greater than 100 µM and the GI50 [2] was 1430 nM. The TGI [2] was 10.8 µM, the GI50 [3] was 800 nM and the TGI [3] was greater than 100 µM. The GI50 [4] was 2790 nM, the TGI [4] was greater than 100 µM and the GI50 [5] was 2790 nM. For the same compound, the TGI [5] was greater than 100 µM, the GI50 [6] was 3.7 µM and the TGI [6] was 40.8 µM. The GI50 [7] was 525 nM, the TGI [7] was greater than 100 µM and the GI50 [8] was 5.21 µM. The TGI [8] was greater than 100 µM, the GI50 [9] was 589 nM and the TGI [9] was greater than 100 µM. For the same compound, the GI50 [10] was 4.03 µM, the TGI [10] was 66.2 µM and the GI50 [11] was 597 nM. The TGI [11] was 30 µM, the GI50 [12] was 4.39 µM and the TGI [12] was 40.2 µM. It also gave a GI50 [13] of 2650 nM, a TGI [13] of 41.3 µM and a GI50 [14] of 725 nM. The TGI [14] was greater than 100 µM, the GI50 [15] was 4.4 µM and the TGI [15] was greater than 100 µM. It also gave a GI50 [16] of 3.6 µM, a TGI [16] greater than 100 µM and a GI50 [17] of 2380 nM. For the same compound, the TGI [17] was greater than 100 µM, the GI50 [18] was 741 nM and the TGI [18] was greater than 100 µM. The GI50 [19] was 1550 nM, the TGI [19] was greater than 100 µM and the GI50 [20] was 724 nM. For the same compound, the TGI [20] was 13.2 µM, the GI50 [21] was 377 nM and the TGI [21] was 14.1 µM. It also gave a GI50 [22] of 629 nM, a TGI [22] greater than 100 µM and a GI50 [23] of 552 nM. It also gave a TGI [23] greater than 100 µM, a GI50 [24] of 2670 nM and a TGI [24] greater than 100 µM. It also gave a GI50 [25] of 4.02 µM, a TGI [25] greater than 100 µM and a GI50 [26] of 9.98 µM. For the same compound, the TGI [26] was greater than 100 µM, the GI50 [27] was 2850 nM and the TGI [27] was 84.5 µM. The GI50 [28] was 467 nM, the TGI [28] was 87.7 µM and the GI50 [29] was 2970 nM. The TGI [29] was 19.9 µM, the GI50 [30] was 613 nM and the TGI [30] was greater than 100 µM. For the same compound, the GI50 [31] was 3.19 µM, the TGI [31] was greater than 100 µM and the GI50 [32] was 3.55 µM. The TGI [32] was 22 µM, the GI50 [33] was 621 nM and the TGI [33] was 54.5 µM. It also gave a GI50 [34] of 4.86 µM, a TGI [34] greater than 100 µM and a GI50 [35] of 592 nM. The TGI [35] was greater than 100 µM, the GI50 [36] was 405 nM and the TGI [36] was 15.8 µM. For the same compound, the GI50 [37] was 5.24 µM, the TGI [37] was 38.2 µM and the GI50 [38] was 1480 nM. It also gave a TGI [38] greater than 100 µM, a GI50 [39] of 2510 nM and a TGI [39] of 34.5 µM. For the same compound, the GI50 [40] was 2740 nM, the TGI [40] was 29.1 µM and the GI50 [41] was 3.09 µM. It also gave a TGI [41] greater than 100 µM, a GI50 [42] of 4.72 µM and a TGI [42] greater than 100 µM. The GI50 [43] was 5.42 µM, the TGI [43] was greater than 100 µM and the GI50 [44] was 23.5 µM. For the same compound, the TGI [44] was 84.8 µM, the GI50 [45] was 9.64 µM and the TGI [45] was greater than 100 µM. It also gave a GI50 [46] of 359 nM, a TGI [46] greater than 100 µM and a GI50 [47] of 1730 nM. For the same compound, the TGI [47] was greater than 100 µM, the GI50 [48] was 2760 nM and the TGI [48] was greater than 100 µM. The GI50 [49] was 554 nM, the TGI [49] was 24.4 µM and the GI50 [50] was 484 nM. It also gave a TGI [50] greater than 100 µM, a GI50 [51] of 4.6 µM and a TGI [51] greater than 100 µM. For the same compound, the GI50 [52] was 3.79 µM, the TGI [52] was greater than 100 µM and the GI50 [53] was 6.43 µM. For the same compound, the TGI [53] was greater than 100 µM, the GI50 [54] was 802 nM and the TGI [54] was 37.5 µM. The GI50 [55] was 593 nM and the TGI [55] was 37.2 µM.
